Laboratory results as given in ChEMBL document CHEMBL3885881, “DrugMatrix”.

Species on record: Rattus norvegicus
Assay: DrugMatrix - Regimen: Daily Repeat
Type: toxicity, organism-based, Sprague-Dawley
Set-up: regimen Daily Repeat, gender Male, age 6-8 weeks
Conditions: in vivo, po, route oral GAVAGE, vehicle .5 % CMC; for ABSOLUTE BASOPHIL / ABSOLUTE EOSINOPHIL / ABSOLUTE LYMPHOCYTE / ABSOLUTE MONOCYTE / ABSOLUTE SEGMENTED NEUTROPHIL / BASOPHIL / EOSINOPHIL / ERYTHROCYTE COUNT / HEMATOCRIT / HEMOGLOBIN / LEUKOCYTE COUNT / LYMPHOCYTE / MEAN CORPUSCULAR HEMOGLOBIN / MEAN CORPUSCULAR HEMOGLOBIN CONCENTRATION / MEAN CORPUSCULAR VOLUME / MONOCYTE / NEUTROPHIL / NUCLEATED RED BLOOD CELLS / PLATELET COUNT: tissue Blood
[1] = 500 mg/kg, 72 h, dose level High, time 3 day
[2] = 500 mg/kg, 72 h, tissue Plasma, dose level High, time 3 day
[3] = 500 mg/kg, 120 h, dose level High, time 5 day
[4] = 500 mg/kg, 120 h, tissue Plasma, dose level High, time 5 day

`OCCOCCN1CCN(C2=Nc3ccccc3Sc3ccccc32)CC1` [QUETIAPINE] was tested, and the “URIC ACID” value (47 mg/kg, 120 h, tissue Plasma, dose level Low, time 5 day) was 2.17 mg/dL, the “ABSOLUTE BASOPHIL” value [1] was 0 CELLS/uL and the “ABSOLUTE EOSINOPHIL” value [1] was 0 CELLS/uL. The “ABSOLUTE LYMPHOCYTE” value [1] was 9655.67 CELLS/uL, the “ABSOLUTE MONOCYTE” value [1] was 233.67 CELLS/uL and the “ABSOLUTE SEGMENTED NEUTROPHIL” value [1] was 577.33 CELLS/uL. The BASOPHIL [1] was 0%, the EOSINOPHIL [1] was 0% and the “ERYTHROCYTE COUNT” value [1] was 5.61 x10E6/uL. For the same compound, the HEMATOCRIT [1] was 34.93%, the HEMOGLOBIN [1] was 14.17 G/DL and the “LEUKOCYTE COUNT” value [1] was 10.47 x10E3/uL. The LYMPHOCYTE [1] was 92.67%, the “MEAN CORPUSCULAR HEMOGLOBIN” value [1] was 25.27 pg and the “MEAN CORPUSCULAR HEMOGLOBIN CONCENTRATION” value [1] was 40.53 G/DL. For the same compound, the “MEAN CORPUSCULAR VOLUME” value [1] was 62.27 fL, the MONOCYTE [1] was 2% and the NEUTROPHIL [1] was 5.33%. The “NUCLEATED RED BLOOD CELLS” value [1] was 0 /100WBC, the “PLATELET COUNT” value [1] was 1122.67 x10E3/uL and the “ALANINE AMINOTRANSFERASE” value [2] was 50.33 u/L. For the same compound, the ALBUMIN [2] was 4.3 G/DL, the “ASPARTATE AMINOTRANSFERASE” value [2] was 75 u/L and the “BLOOD UREA NITROGEN” value [2] was 16.67 mg/dL. The “CARBON DIOXIDE” value [2] was 26.33 mmol/L, the CHOLESTEROL [2] was 46.67 mg/dL and the “CREATINE PHOSPHOKINASE” value [2] was 448 u/L. For the same compound, the CREATININE [2] was 0.21 mg/dL, the GLUCOSE [2] was 138 mg/dL and the “LACTATE DEHYDROGENASE” value [2] was 232.33 u/L. It also gave an LIPASE [2] of 8 u/L, a POTASSIUM [2] of 6.14 MEQ/L and an SODIUM [2] of 143.73 MEQ/L. For the same compound, the “TOTAL BILIRUBIN” value [2] was 0.23 mg/dL, the “TOTAL PROTEIN” value [2] was 5.57 G/DL and the “URIC ACID” value [2] was 1.33 mg/dL. For the same compound, the “ABSOLUTE BASOPHIL” value [3] was 0 CELLS/uL, the “ABSOLUTE EOSINOPHIL” value [3] was 0 CELLS/uL and the “ABSOLUTE LYMPHOCYTE” value [3] was 15536 CELLS/uL. For the same compound, the “ABSOLUTE MONOCYTE” value [3] was 318.67 CELLS/uL, the “ABSOLUTE SEGMENTED NEUTROPHIL” value [3] was 1612 CELLS/uL and the BASOPHIL [3] was 0%. The EOSINOPHIL [3] was 0%, the “ERYTHROCYTE COUNT” value [3] was 6.23 x10E6/uL and the HEMATOCRIT [3] was 37.83%. The HEMOGLOBIN [3] was 15.17 G/DL, the “LEUKOCYTE COUNT” value [3] was 17.47 x10E3/uL and the LYMPHOCYTE [3] was 89%. For the same compound, the “MEAN CORPUSCULAR HEMOGLOBIN” value [3] was 24.33 pg, the “MEAN CORPUSCULAR HEMOGLOBIN CONCENTRATION” value [3] was 40.1 G/DL and the “MEAN CORPUSCULAR VOLUME” value [3] was 60.67 fL. The MONOCYTE [3] was 1.67%, the NEUTROPHIL [3] was 9.33% and the “NUCLEATED RED BLOOD CELLS” value [3] was 0 /100WBC. For the same compound, the “PLATELET COUNT” value [3] was 1152.33 x10E3/uL, the “ALANINE AMINOTRANSFERASE” value [4] was 50.33 u/L and the ALBUMIN [4] was 4.37 G/DL. For the same compound, the “ASPARTATE AMINOTRANSFERASE” value [4] was 71 u/L, the “BLOOD UREA NITROGEN” value [4] was 20 mg/dL and the “CARBON DIOXIDE” value [4] was 25 mmol/L. For the same compound, the CHLORIDE [4] was 103 MEQ/L, the CHOLESTEROL [4] was 56.67 mg/dL and the “CREATINE PHOSPHOKINASE” value [4] was 184.33 u/L. For the same compound, the CREATININE [4] was 0.29 mg/dL, the GLUCOSE [4] was 154 mg/dL and the “LACTATE DEHYDROGENASE” value [4] was 150.67 u/L. It also gave an LIPASE [4] of 8.67 u/L, a POTASSIUM [4] of 6.89 MEQ/L and an SODIUM [4] of 145 MEQ/L. For the same compound, the “TOTAL BILIRUBIN” value [4] was 0.2 mg/dL, the “TOTAL PROTEIN” value [4] was 6.13 G/DL and the “URIC ACID” value [4] was 2.13 mg/dL.
